From paper PMC5601486, “Identification of 4-phenylquinolin-2(1H)-one as a specific allosteric inhibitor of Akt” (Scientific Reports, 2017)

Key:
Assay in all cases: KINOMEscan
Settings in all cases: 50000 nM
[1] = tested on: AKT3
Procedure: KINOMEscan™ selectivity screen
(§1) The assay was perfor med at DiscoveRx Corporation according the methods published previously5. Briefly, Kinase-tagged T7 phage strains were grown in parallel in an E. coli host derived from the BL21 strain. E. coli were grown to log-phase and infected with T7 phage from a frozen stock and incubated with shaking at 32°C until lysis (90-150 minutes). The kinases were produced in HEK-293 cells and subsequently tagged with DNA for qPCR detection. Streptavidin-coated magnetic beads were treated with biotinylated small molecule ligands to generate affinity resins for kinase
(§2) inhibitor or DMSO control was performed in polypropylene 384-well plates for 1 hr at room temperature. After wash with PBS buffer containing 0.05% Tween 20, the beads were incubated in elution buffer (PBS containing 0.05 % Tween 20 and 0.5 μM non-biotinylated affinity ligand) for 30 minutes at room temperature. The kinase concentration in the eluates was measured by qPCR.

[2] = tested on: BMPR1A
Procedure: KINOMEscan™ selectivity screen
as §1, §2

[3] = tested on: CDK4
Procedure: KINOMEscan™ selectivity screen
(§3) Briefly, Kinase-tagged T7 phage strains were grown in parallel in an E. coli host derived from the BL21 strain. E. coli were grown to log-phase and infected with T7 phage from a frozen stock and incubated with shaking at 32°C until lysis (90-150 minutes). The kinases were produced in HEK-293 cells and subsequently tagged with DNA for qPCR detection. Streptavidin-coated magnetic beads were treated with biotinylated small molecule ligands to generate affinity resins for kinase
as §2

[4] = tested on: CDKL5
Procedure: KINOMEscan™ selectivity screen
as §3, §2

[5] = tested on: MAST1
Procedure: KINOMEscan™ selectivity screen
as §1, §2

[6] = tested on: MTOR
Procedure: KINOMEscan™ selectivity screen
as §1, §2

[7] = tested on: TAOK3
Procedure: KINOMEscan™ selectivity screen
as §1, §2

[8] = tested on: TESK1
Procedure: KINOMEscan™ selectivity screen
as §1, §2

[9] = tested on: TNK2
Procedure: KINOMEscan™ selectivity screen
as §1, §2

[10] = tested on: PIK3CA(E545K)
Procedure: KINOMEscan™ selectivity screen
as §1, §2

[11] = tested on: MELK
Procedure: KINOMEscan™ selectivity screen
as §1, §2

[12] = tested on: p38-beta
Procedure: KINOMEscan™ selectivity screen
as §1, §2

[13] = tested on: PIK3C2G
Procedure: KINOMEscan™ selectivity screen
as §1, §2

[14] = tested on: WNK1
Procedure: KINOMEscan™ selectivity screen
as §1, §2

[15] = tested on: CDK4-cyclinD1
Procedure: KINOMEscan™ selectivity screen
as §1, §2

[16] = tested on: LTK
Procedure: KINOMEscan™ selectivity screen
as §1, §2

[17] = tested on: RAF1
Procedure: KINOMEscan™ selectivity screen
as §1, §2

[18] = tested on: TSSK3
Procedure: KINOMEscan™ selectivity screen
as §1, §2

[19] = tested on: ASK1
Procedure: KINOMEscan™ selectivity screen
as §1, §2

[20] = tested on: PFTK1
Procedure: KINOMEscan™ selectivity screen
as §3, §2

[21] = tested on: CAMK2B
Procedure: KINOMEscan™ selectivity screen
as §3, §2

[22] = tested on: DCAMKL3
Procedure: KINOMEscan™ selectivity screen
as §3, §2

[23] = tested on: CSNK1G1
Procedure: KINOMEscan™ selectivity screen
as §1, §2

[24] = tested on: TLK2
Procedure: KINOMEscan™ selectivity screen
as §3, §2

[25] = tested on: BUB1
Procedure: KINOMEscan™ selectivity screen
as §1, §2

[26] = tested on: CDK8
Procedure: KINOMEscan™ selectivity screen
as §1, §2

[27] = tested on: CHEK1
Procedure: KINOMEscan™ selectivity screen
as §1, §2

[28] = tested on: CDK7
Procedure: KINOMEscan™ selectivity screen
as §1, §2

[29] = tested on: FER
Procedure: as §3, §2

[30] = tested on: SRPK2
Procedure: KINOMEscan™ selectivity screen
(§4) The assay was perfor med at DiscoveRx Corporation according the methods published previously5. […] The kinases were produced in HEK-293 cells and subsequently tagged with DNA for qPCR detection. Streptavidin-coated magnetic beads were treated with biotinylated small molecule ligands to generate affinity resins for kinase
as §2

[31] = tested on: TIE1
Procedure: KINOMEscan™ selectivity screen
as §4, §2

[32] = tested on: BMPR1B
Procedure: KINOMEscan™ selectivity screen
as §1, §2

[33] = tested on: DAPK2
Procedure: KINOMEscan™ selectivity screen
as §1, §2

[34] = tested on: RIOK2
Procedure: KINOMEscan™ selectivity screen
as §1, §2

[35] = tested on: SGK3
Procedure: KINOMEscan™ selectivity screen
as §1, §2

[36] = tested on: CAMK2G
Procedure: KINOMEscan™ selectivity screen
as §1, §2

[37] = tested on: CAMK2D
Procedure: KINOMEscan™ selectivity screen
as §3, §2

[38] = tested on: MUSK
Procedure: KINOMEscan™ selectivity screen
(§5) The kinases were produced in HEK-293 cells and subsequently tagged with DNA for qPCR detection. Streptavidin-coated magnetic beads were treated with biotinylated small molecule ligands to generate affinity resins for kinase
as §2

[39] = tested on: PRKCH
Procedure: KINOMEscan™ selectivity screen
as §5, §2

[40] = tested on: HIPK1
Procedure: KINOMEscan™ selectivity screen
as §3, §2

[41] = tested on: ULK1
Procedure: KINOMEscan™ selectivity screen
as §1, §2

[42] = tested on: ABL1(F317I)-phosphorylated
Procedure: KINOMEscan™ selectivity screen
as §1, §2

[43] = tested on: PKMYT1
Procedure: KINOMEscan™ selectivity screen
as §3, §2

[44] = tested on: MAP3K3
Procedure: KINOMEscan™ selectivity screen
as §3, §2

[45] = tested on: RPS6KA4(Kin.Dom.1-N-terminal)
Procedure: KINOMEscan™ selectivity screen
as §3, §2

[46] = tested on: ITK
Procedure: KINOMEscan™ selectivity screen
as §3, §2

[47] = tested on: TRKB
Procedure: KINOMEscan™ selectivity screen
as §4, §2

[48] = tested on: FLT3(ITD)
Procedure: KINOMEscan™ selectivity screen
as §4, §2

[49] = tested on: RET
Procedure: KINOMEscan™ selectivity screen
as §1, §2

[50] = tested on: KIT(V559D,V654A)
Procedure: KINOMEscan™ selectivity screen
as §1, §2

[51] = tested on: ABL1(Q252H)-nonphosphorylated
Procedure: KINOMEscan™ selectivity screen
as §1, §2

[52] = tested on: AXL
Procedure: KINOMEscan™ selectivity screen
as §1, §2

[53] = tested on: RSK1(Kin.Dom.2-C-terminal)
Procedure: KINOMEscan™ selectivity screen
as §1, §2

[54] = tested on: KIT(L576P)
Procedure: KINOMEscan™ selectivity screen
as §3, §2

Q: How did the “Percent Control” value [1] turn out when `Oc1cc(-c2ccccc2)c2ccccc2n1` [G7, 4-phenylquinolin-2(1H)-one] was run?
A: Its value is 100%.

Q: What about the “Percent Control” value [2] of the same molecule?
A: The value was 100%.

Q: What about the “Percent Control” value [3] of the same molecule?
A: Its value is 100%.

Q: And the “Percent Control” value [4]?
A: The value was 100%.

Q: What about the “Percent Control” value [5] of the same molecule?
A: The value was 100%.

Q: What about the “Percent Control” value [6] of the same molecule?
A: The value was 100%.

Q: And the “Percent Control” value [7]?
A: Its value is 100%.

Q: And the “Percent Control” value [8]?
A: Its value is 100%.

Q: What about the “Percent Control” value [9] of the same molecule?
A: The value was 99%.

Q: And the “Percent Control” value [10]?
A: Its value is 98%.

Q: And the “Percent Control” value [11]?
A: Its value is 97%.

Q: What about the “Percent Control” value [12] of the same molecule?
A: The value was 97%.

Q: And the “Percent Control” value [13]?
A: Its value is 97%.

Q: What about the “Percent Control” value [14] of the same molecule?
A: Its value is 97%.

Q: What about the “Percent Control” value [15] of the same molecule?
A: Its value is 95%.

Q: And the “Percent Control” value [16]?
A: Its value is 95%.

Q: And the “Percent Control” value [17]?
A: Its value is 95%.

Q: And the “Percent Control” value [18]?
A: The value was 95%.

Q: And the “Percent Control” value [19]?
A: Its value is 94%.

Q: And the “Percent Control” value [20]?
A: The value was 94%.

Q: What about the “Percent Control” value [21] of the same molecule?
A: The value was 92%.

Q: What about the “Percent Control” value [22] of the same molecule?
A: The value was 91%.

Q: What about the “Percent Control” value [23] of the same molecule?
A: Its value is 89%.

Q: And the “Percent Control” value [24]?
A: The value was 89%.

Q: What about the “Percent Control” value [25] of the same molecule?
A: The value was 85%.

Q: What about the “Percent Control” value [26] of the same molecule?
A: The value was 85%.

Q: What about the “Percent Control” value [27] of the same molecule?
A: The value was 85%.

Q: And the “Percent Control” value [28]?
A: The value was 84%.

Q: And the “Percent Control” value [29]?
A: Its value is 84%.

Q: And the “Percent Control” value [30]?
A: Its value is 84%.

Q: What about the “Percent Control” value [31] of the same molecule?
A: The value was 84%.

Q: What about the “Percent Control” value [32] of the same molecule?
A: Its value is 83%.

Q: What about the “Percent Control” value [33] of the same molecule?
A: Its value is 83%.

Q: What about the “Percent Control” value [34] of the same molecule?
A: Its value is 83%.

Q: And the “Percent Control” value [35]?
A: Its value is 83%.

Q: What about the “Percent Control” value [36] of the same molecule?
A: The value was 81%.

Q: What about the “Percent Control” value [37] of the same molecule?
A: Its value is 79%.

Q: And the “Percent Control” value [38]?
A: Its value is 75%.

Q: And the “Percent Control” value [39]?
A: The value was 75%.

Q: And the “Percent Control” value [40]?
A: Its value is 74%.

Q: And the “Percent Control” value [41]?
A: The value was 74%.

Q: What about the “Percent Control” value [42] of the same molecule?
A: Its value is 72%.

Q: What about the “Percent Control” value [43] of the same molecule?
A: Its value is 65%.

Q: And the “Percent Control” value [44]?
A: The value was 62%.

Q: What about the “Percent Control” value [45] of the same molecule?
A: The value was 61%.

Q: What about the “Percent Control” value [46] of the same molecule?
A: The value was 60%.

Q: And the “Percent Control” value [47]?
A: Its value is 56%.

Q: And the “Percent Control” value [48]?
A: Its value is 52%.

Q: And the “Percent Control” value [49]?
A: The value was 51%.

Q: What about the “Percent Control” value [50] of the same molecule?
A: The value was 48%.

Q: What about the “Percent Control” value [51] of the same molecule?
A: The value was 46%.

Q: What about the “Percent Control” value [52] of the same molecule?
A: The value was 42%.

Q: And the “Percent Control” value [53]?
A: The value was 39%.

Q: And the “Percent Control” value [54]?
A: The value was 22%.
